# Test: Human HepG2 cell viability assay in 384 well format
# Type: toxicity, cell-based
# Design: dose 125 nL, time 70.5 hour; cytotoxicity at 70.5 h: concentration not given beside the values
# Conditions: HepG2 cells, read-out: Inhibition
smiles,measurement,value
CCC(CC)C(=O)N1CCN(Cc2nc3ccccc3c(=O)[nH]2)CC1,cytotoxicity at 70.5 h,-14.5%
C[C@]1(O)CCN(Cc2ncccc2F)C[C@@H]1Oc1ccccc1,cytotoxicity at 70.5 h,-6.62%
C[C@]1(O)CN(Cc2ncccc2F)CC[C@@H]1Oc1ccccc1,cytotoxicity at 70.5 h,-7.87%
CNc1cc(C2CN(Cc3csc(C)n3)CCO2)nc(C)n1 (stereo not drawn),cytotoxicity at 70.5 h,9.88%
CC1(C(=O)N2CCOCC2)CN(C2CCCCC2)CCO1 (stereo not drawn),cytotoxicity at 70.5 h,0.715%
CCCn1nccc1-c1cc(C2CCN(C(C)=O)CC2)ccn1,cytotoxicity at 70.5 h,-8.34%
Cc1nccc(C2CCCCN2Cc2ccc(F)cc2)n1 (stereo not drawn),cytotoxicity at 70.5 h,10.1%
Cc1c[nH]nc1C1CCCN(C(=O)Cn2cccn2)C1 (stereo not drawn),cytotoxicity at 70.5 h,-5.23%
Cc1noc(C)c1-c1ccnc(C2CCNCC2)c1,cytotoxicity at 70.5 h,-2.34%
c1ccc(O[C@H]2C[C@@H]3CN(Cc4cnccn4)C[C@@H]3C2)cc1,cytotoxicity at 70.5 h,-0.72%
Cc1noc(C)c1-c1cccc(C2CCNCC2)n1,cytotoxicity at 70.5 h,7.5%
Cc1cnc(C2(C)CCN(Cc3csc(C)n3)CC2)s1,cytotoxicity at 70.5 h,-4.14%
Cc1cccc(N2CCOC(C(=O)O)C2)c1 (stereo not drawn),cytotoxicity at 70.5 h,-6.1%
O=C(CC1CCCC1)N1CCC(c2cc3ncccc3c(O)n2)CC1,cytotoxicity at 70.5 h,-9.11%
Cc1nnc(Nc2cccc(C3CCCN(Cc4ncc[nH]4)C3)n2)s1 (stereo not drawn),cytotoxicity at 70.5 h,14%
CN(C)c1cc(C2CCCN(S(=O)(=O)c3cn(C)cn3)C2)ccn1 (stereo not drawn),cytotoxicity at 70.5 h,-4.64%
NC(=O)CN1CCCC1c1cncc(Oc2ccc(Cl)cc2)n1 (stereo not drawn),cytotoxicity at 70.5 h,-4.42%
Cc1cc(C)nc(C2CCN(C(=O)CCn3ncc4ccccc43)C2)n1 (stereo not drawn),cytotoxicity at 70.5 h,2.78%
Cn1nccc1-c1cc(C2CCN(S(C)(=O)=O)CC2)ccn1,cytotoxicity at 70.5 h,-7.68%
COc1ccccc1Oc1cncc(C2CCCN(C)C2)n1 (stereo not drawn),cytotoxicity at 70.5 h,-5.97%
CN(C)c1cc(C2CCCN(C(=O)Cn3cc(Cl)cn3)C2)ccn1 (stereo not drawn),cytotoxicity at 70.5 h,-4.03%
COCC(=O)N1CCC(c2csc(NC(C)=O)n2)CC1,cytotoxicity at 70.5 h,-8.01%
CC(=O)Nc1nc(C2CN(C(=O)C3CCC3)C2)cs1,cytotoxicity at 70.5 h,-7.1%
CC1CCC(NCCNC(=O)c2cccs2)CC1 (stereo not drawn),cytotoxicity at 70.5 h,-7.09%
Cc1cc(O)nc(C2CN(CCO)CCO2)n1 (stereo not drawn),cytotoxicity at 70.5 h,8.3%
O=C(c1cc[nH]n1)N1CCCC1c1cc(Nc2ccccn2)n[nH]1 (stereo not drawn),cytotoxicity at 70.5 h,-11.2%
CN(C)[C@@H]1CN(C(=O)c2ccc3ccccc3n2)C[C@H]1O,cytotoxicity at 70.5 h,-7.72%
Cc1cccc(Nc2cccc(C3CCCN(Cc4ncc[nH]4)C3)n2)n1 (stereo not drawn),cytotoxicity at 70.5 h,-8.27%
CNc1cc(C2CN(Cc3coc(C)n3)CCO2)nc(C)n1 (stereo not drawn),cytotoxicity at 70.5 h,-8.75%
O=C(CCN1CCc2ccccc21)N1CC(C(=O)N2CCOCC2)C1,cytotoxicity at 70.5 h,-5.25%
O=S(=O)(N1CCOCC1)N1CCCC1Cn1cccn1 (stereo not drawn),cytotoxicity at 70.5 h,-11.1%
O=C(c1cncs1)N1CCCC1c1ccn[nH]1 (stereo not drawn),cytotoxicity at 70.5 h,-3.39%
Cc1noc(C)c1-c1ccc(C2CCCN2C(=O)c2cccnn2)nc1 (stereo not drawn),cytotoxicity at 70.5 h,19.1%
Cc1ncncc1C(=O)N1CCOC(C)(C(=O)NC2CCCC2)C1 (stereo not drawn),cytotoxicity at 70.5 h,-1.33%
Cc1cccc(CC2CCCN(C(=O)Cc3csc(C)n3)C2)n1 (stereo not drawn),cytotoxicity at 70.5 h,-10.5%
COCC(=O)N1CC(c2ccnc(Nc3ccc(C)cn3)n2)C1,cytotoxicity at 70.5 h,-10.9%
Cc1ccc(C2CN(C(=O)c3ccn(C)c(=O)c3)CCO2)nc1 (stereo not drawn),cytotoxicity at 70.5 h,-7.64%
Cc1cc(N2CCC(c3n[nH]c4nccnc34)C2)ncn1 (stereo not drawn),cytotoxicity at 70.5 h,19.2%
Cc1ccc(Nc2nccc(C3CCN(CC(N)=O)C3)n2)nc1 (stereo not drawn),cytotoxicity at 70.5 h,-8.32%
CS(=O)(=O)c1cn[nH]c1C1CCCCN1C(=O)c1cnccn1 (stereo not drawn),cytotoxicity at 70.5 h,-5.18%
Cn1ccc(C(=O)N2CCCC2c2[nH]ncc2C(N)=O)n1 (stereo not drawn),cytotoxicity at 70.5 h,-4.61%
CC(=O)N1CCCC(Cc2cnc(-n3ccnc3)cn2)C1 (stereo not drawn),cytotoxicity at 70.5 h,-5.34%
CC(C)NC(=O)C1(Cc2ccccc2-c2cccs2)CCNC1 (stereo not drawn),cytotoxicity at 70.5 h,-3.31%
CC(=O)N1CCC(Cc2cnc(-n3ccnc3)cn2)CC1,cytotoxicity at 70.5 h,-6.47%
CNc1cncc(C2CCCN2S(=O)(=O)c2cccc(F)c2)n1 (stereo not drawn),cytotoxicity at 70.5 h,-2.79%
Cc1cccc2nc(C(=O)N3CCCC[C@]4(C)NC(=O)CCC[C@H]34)cn12,cytotoxicity at 70.5 h,-5.3%
Cc1ccc2nc(C(=O)N3CCCC[C@]4(C)NC(=O)CCC[C@H]34)cn2c1,cytotoxicity at 70.5 h,-4.04%
CN(C(=O)c1ccnn1C)[C@@H]1CCC[C@@H](Oc2ccccc2)[C@@H]1O,cytotoxicity at 70.5 h,-3.62%
Cc1ccccc1CC(=O)N[C@@H]1CCC[C@@H](N2CCNC(=O)C2)[C@@H]1O,cytotoxicity at 70.5 h,-6.12%
CN(C(=O)c1cn(C)cn1)[C@@H]1CCC[C@@H](Oc2ccccc2)[C@@H]1O,cytotoxicity at 70.5 h,-2.57%
CC(=O)N1CCC(c2cnc(-c3c(C)n[nH]c3C)cn2)CC1,cytotoxicity at 70.5 h,-3.69%
CNC(=O)c1cn[nH]c1C1(C)CCCN(Cc2nccn2C(C)C)C1 (stereo not drawn),cytotoxicity at 70.5 h,-2.7%
NC(=O)CN1CCCC(Cc2ccc(N)nn2)C1 (stereo not drawn),cytotoxicity at 70.5 h,36.2%
Cn1ccc(C(=O)N2CCOC(c3ccccn3)C2)cc1=O (stereo not drawn),cytotoxicity at 70.5 h,6.02%
COc1cccc(-c2ccnc(C3CCNCC3)c2)c1,cytotoxicity at 70.5 h,7.37%
CCc1ccccc1Nc1noc2c1CN(C(=O)CCOC)CC2,cytotoxicity at 70.5 h,18.8%
CCc1ccccc1Nc1noc2c1CN(C(=O)C1CCCO1)CC2 (stereo not drawn),cytotoxicity at 70.5 h,-3.46%
COc1cccc(CC(=O)N2CCCC2c2nc(C)c(C)c(O)n2)c1 (stereo not drawn),cytotoxicity at 70.5 h,-2.86%

# Source: ChEMBL document CHEMBL3507680, “University of Dundee, Gates Library screen for HepG2 cell viability”
